Test results from patent US6875760B2 (Novo Nordisk A/S, priority 1999, dated 2005).

Each molecule was assayed against T1, cloned human glucagon receptor (Homo sapiens, UniProt P47871) (assay: Glucagon Binding Assay (II)). Conditions: plasma membranes of BHK cells expressing the receptor; read-out: Glu Bd Assay (II) IC50.
T1 construct: expressed in transfected cells; plasma membrane preparation
T1 sequence (P47871 26-477): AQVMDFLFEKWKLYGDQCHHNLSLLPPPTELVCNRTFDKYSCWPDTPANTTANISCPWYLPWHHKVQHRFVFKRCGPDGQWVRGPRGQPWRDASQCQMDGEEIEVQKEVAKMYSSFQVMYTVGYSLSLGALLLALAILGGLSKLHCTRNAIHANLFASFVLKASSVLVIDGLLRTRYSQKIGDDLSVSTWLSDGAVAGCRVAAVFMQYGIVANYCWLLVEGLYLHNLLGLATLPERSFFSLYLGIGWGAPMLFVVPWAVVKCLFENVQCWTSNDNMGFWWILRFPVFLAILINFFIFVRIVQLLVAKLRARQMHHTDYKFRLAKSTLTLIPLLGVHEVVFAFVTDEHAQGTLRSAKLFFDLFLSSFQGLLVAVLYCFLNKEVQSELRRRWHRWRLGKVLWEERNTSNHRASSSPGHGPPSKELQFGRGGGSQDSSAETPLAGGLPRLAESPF

Row | Structure (SMILES) | IC50
1 | CCOC(=O)C(C)(C)C1CCC(N(Cc2ccc(C(=O)NCCC(=O)O)cc2)C(=O)Nc2ccc(OC(F)(F)F)cc2)CC1 (stereo not shown) [Example 611, 2-{4-[1-[4-(2-Carboxyethylcarbamoyl)benzyl]-3-(4-trifluoromethoxyphenyl)ureido]cyclohexyl}-2-methylpropionic acid ethyl ester] | 437 nM
2 | CC(C)(C)C1CCC(N(Cc2ccc(C(=O)NCCC(=O)O)cc2)NC(=O)c2ccc(OC(F)(F)F)cc2)CC1 (stereo not shown) [drawing 1171] | 108 nM
3 | O=C(O)CCNC(=O)c1ccc(CN(C(=O)Nc2cc(Cl)cc(Cl)c2)c2ccc(C3=CCCCC3)cc2)cc1 [Example 605, 3-{4-[1-(4-Cyclohex-1-enylphenyl)-3-(3,5-dichlorophenyl)ureidomethyl]benzoylamino}propionic acid] | 15 nM
4 | CC1CC(N(Cc2ccc(C(=O)NCCC(=O)O)cc2)C(=O)Nc2cc(Cl)cc(Cl)c2)CC(C)(C)C1 (stereo not shown) [Example 176, 3-{4-[3-(3,5-Dichlorophenyl)-1-(3,3,5-trimethylcyclohexyl)ureidomethyl]benzoylamino)propionic acid] | 641 nM
5 | O=C(O)CCNC(=O)c1ccc(CN(CCc2ccc(Cl)cc2)C(=O)Nc2ccc(OCc3ccccc3)cc2)cc1 | 400 nM
6 | O=C(O)CCNC(=O)c1ccc(CN(C(=O)Nc2ccc(OC(F)(F)F)cc2)C2CC2c2ccccc2)cc1 (stereo not shown) [Example 231, 3-{4-[1-(2-Phenylcyclopropyl)-3-(4-trifluoromethoxyphenyl)ureidomethyl]benzoylamino}propionic acid] | 349 nM
7 | CCCCOC(=O)c1ccc(NC(=O)N(Cc2ccc(C(=O)NCCC(=O)O)cc2)CC(C)(C)C)cc1 | 230 nM

The remaining lines, values ahead:

Row | IC50 | Structure (SMILES)
8 | 7 nM | CC(C)(C)C1CCC(N(Cc2ccc(C(=O)Nc3nn[nH]n3)cc2)C(=O)Nc2cc(Cl)cc(Cl)c2)CC1 (stereo not shown) [Example 172, 4-[1-(4-tert-Butylcyclohexyl)-3-(3,5-dichlorophenyl)ureidomethyl]-N-(2H-tetrazol-5-yl)benzamide]
9 | 50 nM | CC(C)(C)C1CCC(N(Cc2ccc(C(=O)NCCC(=O)O)cc2)C(=O)Nc2cc(Cl)cc(Cl)c2)CC1 (stereo not shown) [Example 104, 3-{4-[1-(4-tert-Butylcyclohexyl)-3-(3,5-dichlorophenyl)ureidomethyl]benzoylamino)propionic acid]
10 | 150 nM | CC(C)(C)C1CCC(N(Cc2ccc(C(=O)NCCC(=O)O)cc2)C(=O)Nc2cc(Cl)nc(Cl)c2)CC1 (stereo not shown) [Example 103, 3-{4-[1-(4-tert-Butylcyclohexyl)-3-(2,6-dichloropyridin-4-yl)ureidomethyl]benzoylamino)propionic acid]
11 | 4 nM | O=C(Nc1nn[nH]n1)c1ccc(CN(C(=O)Nc2ccc(OC(F)(F)F)cc2)[C@H]2CC[C@H](C3CCCCC3)CC2)cc1 [Example 576, 4-[1-(4-trans-Cyclohexylcyclohexyl)-3-(4-trifluoromethoxyphenyl)ureidomethyl]-N-(2H-tetrazol-5-yl)benzamide]
12 | 11 nM | CC(C)(C)[C@H]1CC[C@H](N(Cc2ccc(C(=O)Nc3nn[nH]n3)cc2)C(=O)Nc2cc(Cl)cc(Cl)c2)CC1 [Example 174, 4-[1-(trans-4-tert-Butylcyclohexyl)-3-(3,5-dichlorophenyl)ureidomethyl]-N-(2H-tetrazol-5-yl)benzamide]

Same assay, conditions: screened at 1 μM; library compounds; read-out: displacement of the glucagon tracer when screened at 1 μM concentration in the glucagon binding assay II

Row | Structure (SMILES) | inhibition at 1 µM
13 | O=C(O)CCNC(=O)c1ccc(CN(C(=O)Nc2ccc(Cl)c(C(F)(F)F)c2)c2ccc3nc(S)sc3c2)cc1 [Example 183, 3-{4-[3-(4-Chloro-3-trifluoromethylphenyl)-1-(2-mercaptobenzothiazol-6-yl)ureidomethyl]benzoylamino}propionic acid] | > 50%
14 | O=C(O)CCCOc1ccc(CN(C(=O)Nc2ccc(Cl)c(C(F)(F)F)c2)C2C[C@H]2c2ccccc2)cc1 (stereo in doubt) [Example 223, 4-{4-[3-(4-Chloro-3-trifluoromethylphenyl)-1-(2-phenylcyclopropyl)ureidomethyl]phenoxy}butyric acid] | > 50%
15 | O=C(O)CCNC(=O)c1ccc(CN(Cc2ccc(C(F)(F)F)cc2)C(=O)Nc2ccc(SC(F)(F)F)cc2)cc1 [Example 120, 3-{4-[1-(4-Trifluoromethylbenzyl)-3-(4-trifluoromethylsulfanylphenyl)ureidomethyl]benzoylamino)propionic acid] | > 50%
16 | O=C(O)CCNC(=O)c1ccc(CN(Cc2ccccc2OC(F)(F)F)C(=O)Nc2ccc3ccccc3c2)s1 [Example 124, 3-{5-[1-(2-Trifluoromethoxybenzyl)-3-naphthalene-2-ylureidomethyl]thiophene-2-carbonylamino)propionic acid] | > 50%
17 | O=C(O)CCNC(=O)c1ccc(CN(C(=O)Nc2cccc(SC(F)(F)F)c2)c2ccc(C3CCCCC3)cc2)o1 [Example 210, 3-({5-[1-(4-cyclohexylphenyl)-3-(3-trifluoromethylsulfanylphenyl)ureidomethyl]furan-2-carbonyl}amino)propionic acid] | > 50%
18 | O=C(O)CCCOc1ccc(CN(C(=O)Nc2ccc(C(=O)O)cc2)c2ccc(C3CCCCC3)cc2)cc1 [Example 218, 4-[3-[4-(3-Carboxypropoxy)benzyl]-3-(4-cyclohexylphenyl)ureido]benzoic acid] | > 50%
19 | COc1cc(CN(Cc2ccc(C(=O)NCCC(=O)O)cc2)C(=O)Nc2ccc(C)cc2)ccc1O [Example 121, 3-{4-[1-(4-Hydroxy-3-methoxybenzyl)-3-(4-methylphenyl)ureidomethyl]benzoylamino)propionic acid] | > 50%
20 | CC(C)(C)C1CCC(N(Cc2ccc(C(=O)NCCC(=O)O)o2)C(=O)Nc2cccc(SC(F)(F)F)c2)CC1 (stereo not shown) [Example 211, 3-({5-[1-(4-tert-Butylcyclohexyl)-3-(3-trifluoromethylsulfanylphenyl)ureidomethyl]furan-2-carbonyl}amino)propionic acid] | > 50%
21 | O=C(O)CCNC(=O)c1ccc(CN(Cc2ccc(C(F)(F)F)cc2)C(=O)Nc2ccc3ccccc3c2)s1 [Example 128, 3-{5-[1-(4-Trifluoromethylbenzyl)-3-naphthalene-2-ylureidomethyl]thiophene-2-carbonylamino)propionic acid] | > 50%

Continued, values first:

Row | inhibition at 1 µM | Structure (SMILES)
22 | > 50% | CC(C)(C)C1CCC(N(Cc2ccc(C(=O)NCCC(=O)O)cc2)C(=O)Nc2ccc(Br)cc2)CC1 (stereo not shown) [Example 133, 3-{4-[3-(4-Bromophenyl)-1-(4-tert-butylcyclohexyl)ureidomethyl]benzoylamino)propionic acid]
23 | > 50% | CC(C)(C)C1CCC(N(Cc2ccc(C(=O)Nc3nnn[nH]3)cc2)C(=O)Nc2ccc(Cl)cc2)CC1 (stereo not shown) [Example 159, 4-[1-(4-tert-Butylcyclohexyl)-3-(4-chlorophenyl)ureidomethyl]-N-(1H-tetrazol-5-yl)benzamide]
24 | > 50% | CC(C)(C)C1CCC(N(Cc2ccc(C(=O)Nc3ccc4c(c3)OCCO4)cc2)C(=O)Nc2ccc(OC(F)(F)F)cc2)CC1 (stereo not shown) [Example 161, 4-[1-(4-tert-Butylcyclohexyl)-3-(4-trifluoromethoxyphenyl)ureidomethyl]-N-(2,3-dihydro-1,4-benzodioxin-6-yl)benzamide]
25 | > 50% | Cc1cc(C)cc(NC(=O)N(Cc2ccc(C(=O)NCCC(=O)O)cc2)C2CCC(C(C)(C)C)CC2)c1 (stereo not shown) [Example 197, 3-{4-[1-(4-tert-Butylcyclohexyl)-3-(3,5-dimethylphenyl)ureidomethyl]benzoylamino}propionic acid]
